This passage reports IC50 results from patent US20210230178A1, “TRIOXACARCIN ANALOGS AND DIMERS AS POTENT ANTICANCER AGENTS” (William Marsh Rice University, priority 2017, published 2021).

Assay in all cases: cells
Experiment [1] has as its system MES SA DX (human uterine sarcoma cell line with marked multidrug resistance). The note with it: 72 h, read-out: IC50 MES SA DX.
Experiment [2] deals with MES SA (human uterine sarcoma). The note with it: 72 h, read-out: IC50 MES SA.
Experiment [3] has as its system HEK 293T (human embryonic kidney cancer cell line). The note with it: 72 h, read-out: IC50 HEK 293T.

Molecules are shown by their SMILES. pIC50: −log10 of the molar value.

As a reminder, the pIC50 is −log10 of the IC50, conventionally taken in molar units. For `CC(=O)Oc1cccc2c1C(=O)c1c(cc(C)c3c1O[C@]1(OC(C)=O)[C@H]4O[C@@](C5OCCCO5)(O[C@H]34)[C@]13CO3)C2=O` [Trx28, (1S,2S,3aS,4R,13aS)-2-(1,3-Dioxan-2-yl)-5-methyl-7,12-dioxo-3a,4,7,12-tetrahydro-13aH-spiro[2,4-epoxyfuro[3,2-b]naphtho[2,3-h]chromene-1,2′-oxirane]-11,13a-diyl diacetate], the pIC50 is 7.93 in experiment [1], 7.96 in experiment [2] and 7.95 in experiment [3].
The matching figures for `Cc1cc2c(c3c1[C@H]1O[C@]4(C5OCCCO5)O[C@@H]1[C@@](O)(O3)[C@@]41CO1)C(=O)c1c(O)cccc1C2=O` [Trx30, (1S,2S,3aS,4R,13aR)-2-(1,3-Dioxan-2-yl)-11,13a-dihydroxy-5-methyl-3a,13a-dihydro-4H-spiro[2,4-epoxyfuro[3,2-b]naphtho[2,3-h]chromene-1,2′-oxirane]-7,12-dione]: 7.42, 7.38 and 7.30.
On to `CO[C@@]12Oc3c4c(cc(C)c3[C@H]3O[C@](C5OCCCO5)(O[C@@H]31)[C@]21CO1)C(=O)c1ccc(Cl)c(OC(C)=O)c1C4=O` [Trx33, (1S,2S,3aS,4R,13aR)-10-Chloro-2-(1,3-dioxan-2-yl)-13a-methoxy-5-methyl-7,12-dioxo-3a,7,12,13a-tetrahydro-4H-spiro[2,4-epoxyfuro[3,2-b]naphtho[2,3-h]chromene-1,2′-oxiran]-11-yl acetate], for which the pIC50 is 7.48 in experiment [1], 7.27 in experiment [2] and 7.41 in experiment [3].
For `CO[C@@]12Oc3c4c(cc(C)c3[C@H]3O[C@](C5OCCCO5)(O[C@@H]31)[C@]21CO1)C(=O)c1cccc(O)c1C4=O` [Trx31, (1S,2S,3aS,4R,13aR)-2-(1,3-Dioxan-2-yl)-11-hydroxy-13a-methoxy-5-methyl-3a,13a-dihydro-4H-spiro[2,4-epoxyfuro[3,2-b]naphtho[2,3-h]chromene-1,2′-oxirane]-7,12-dione] the same measures were 9.19, 8.96 and 8.84.
Regarding `COc1c2c(c(O)c3c4c(c(C)cc13)[C@H]1O[C@]3(C5OCCO5)O[C@@H]1[C@@](O)(O4)[C@@]31CO1)C(=O)CCC2` [Trx8, (1S,2S,3aS,4R,13aR)-2-(1,3-Dioxolan-2-yl)-12,13a-dihydroxy-7-methoxy-5-methyl-3a,4,8,9,10,13a-hexahydro-11H-spiro[2,4-epoxyfuro[3,2-b]naphtho[2,3-h]chromene-1,2′-oxiran]-11-one], the pIC50 was 7.31 in experiment [1], 7.29 in experiment [2] and 7.51 in experiment [3].
As for `COCO[C@@]12Oc3c(c(C)cc4c(OC)c5c(c(O)c34)C(=O)CCC5)[C@H]3O[C@](C4OCCO4)(O[C@@H]31)[C@]21CO1` [Trx10, (1S,2S,3aS,4R,13aS)-2-(1,3-Dioxolan-2-yl)-12-hydroxy-7-methoxy-13a-(methoxymethoxy)-5-methyl-3a,4,8,9,10,13a-hexahydro-11H-spiro[2,4-epoxyfuro[3,2-b]naphtho[2,3-h]chromene-1,2′-oxiran]-11-one], the pIC50 is 8.66 in experiment [1], 8.41 in experiment [2] and 8.82 in experiment [3].
Regarding `COc1c2c(c(O)c3c4c(c(C)cc13)C1OC3(C5OCCCO5)OC1[C@@](OC(C)=O)(O4)[C@@]31CO1)C(=O)CCC2` (stereo partly drawn) [Trx14], the pIC50 was 7.76 in experiment [1], 8.21 in experiment [2] and 8.16 in experiment [3].
In the case of `C=CCOC(=O)N(C(C)C)[C@H]1CO[C@@H](O[C@@]23Oc4c(c(C)cc5c(OC)c6c(c(O)c45)C(=O)CCC6)C4OC(C5OCCCO5)(OC42)[C@]32CO2)C[C@@H]1OC` (stereo partly drawn) [Trx18, (1S,13aS)-2-(1,3-Dioxan-2-yl)-12-hydroxy-7-methoxy-5-methyl-11-oxo-3a,4,8,9,10,11-hexahydro-13aH-spiro[2,4-epoxyfuro[3,2-b]naphtho[2,3-h]chromene-1,2′-oxiran]-13a-yl 4-{[(allyloxy)carbonyl](isopropyl)amino}-2,4-dideoxy-3-O-methyl-α-L-threo-pentopyranoside], the pIC50 was < 6.00 in experiment [1], < 6.00 in experiment [2] and 7.40 in experiment [3].
